Results taken from US20250145642A1, “BICYCLIC HETEROARENES AND METHODS OF THEIR USE” (Kineta, Inc., priority 2021, published 2025).

molecular target: full-length human PIKFYVE (N-terminal GST-fusion) (Homo sapiens (Human), UniProt Q9Y2I7, L932S/Q1183K/Q995L/S1033A/S696N/T998S); assay: PIKfyve biochemical assay (ADP-Glo Kinase assay, Carna Biosciences); conditions: ADP-Glo, full-length human GST-PIKFYVE, 10 μM to 3 nM; read-out: hPIKfyve IC50
Text: (§1) PIKfyve Biochemical Assay. The biochemical PIKfyve inhibition assays were run by Carna Biosciences according to proprietary methodology based on the Promega ADP-Glo™ Kinase assay. A full-length human PIKFYVE [1-2098(end) amino acids and S696N, L932S, Q995L, T998S, S1033A and Q1183K of the protein having the sequence set forth in NCBI Reference Sequence No. NP_055855.2] was expressed as N-terminal GST-fusion protein (265 kDa) using baculovirus expression system. GST-PIKFYVE was purified by using glutathione sepharose chromatography and used in an ADP-Glo™ Kinase assay (Promega). Reactions were set up by adding the test compound solution, substrate solution, ATP solution and kinase solution, each at 4× final concentrations. Reactions were prepared with assay buffer (50 mM MOPS, 1 mM DTT, pH7.2), mixed, and incubated in black 384 well polystyrene plates for 1 hour at room temperature. ADP-Glo™ reagent was then added for 40 minutes, followed by kinase detection reagent for an additional 40 minutes. The kinase activity was evaluated by detecting relative light units on a luminescence plate reader. Samples were run in duplicate from 10 μM to 3 nM. […] IC50 values were calculated from concentration vs % inhibition curves by fitting to a four-parameter logistic curve.
as §1, with “The” for “PIKfyve Biochemical Assay. The”, “accession number” for “the protein having the sequence set forth in NCBI Reference Sequence No.”, “curve. […]” for “curve.”

Sequence of full-length human PIKFYVE (N-terminal GST-fusion) (Q9Y2I7 whole entry S696N/L932S/Q995L/T998S/S1033A/Q1183K, the tested form may be a part): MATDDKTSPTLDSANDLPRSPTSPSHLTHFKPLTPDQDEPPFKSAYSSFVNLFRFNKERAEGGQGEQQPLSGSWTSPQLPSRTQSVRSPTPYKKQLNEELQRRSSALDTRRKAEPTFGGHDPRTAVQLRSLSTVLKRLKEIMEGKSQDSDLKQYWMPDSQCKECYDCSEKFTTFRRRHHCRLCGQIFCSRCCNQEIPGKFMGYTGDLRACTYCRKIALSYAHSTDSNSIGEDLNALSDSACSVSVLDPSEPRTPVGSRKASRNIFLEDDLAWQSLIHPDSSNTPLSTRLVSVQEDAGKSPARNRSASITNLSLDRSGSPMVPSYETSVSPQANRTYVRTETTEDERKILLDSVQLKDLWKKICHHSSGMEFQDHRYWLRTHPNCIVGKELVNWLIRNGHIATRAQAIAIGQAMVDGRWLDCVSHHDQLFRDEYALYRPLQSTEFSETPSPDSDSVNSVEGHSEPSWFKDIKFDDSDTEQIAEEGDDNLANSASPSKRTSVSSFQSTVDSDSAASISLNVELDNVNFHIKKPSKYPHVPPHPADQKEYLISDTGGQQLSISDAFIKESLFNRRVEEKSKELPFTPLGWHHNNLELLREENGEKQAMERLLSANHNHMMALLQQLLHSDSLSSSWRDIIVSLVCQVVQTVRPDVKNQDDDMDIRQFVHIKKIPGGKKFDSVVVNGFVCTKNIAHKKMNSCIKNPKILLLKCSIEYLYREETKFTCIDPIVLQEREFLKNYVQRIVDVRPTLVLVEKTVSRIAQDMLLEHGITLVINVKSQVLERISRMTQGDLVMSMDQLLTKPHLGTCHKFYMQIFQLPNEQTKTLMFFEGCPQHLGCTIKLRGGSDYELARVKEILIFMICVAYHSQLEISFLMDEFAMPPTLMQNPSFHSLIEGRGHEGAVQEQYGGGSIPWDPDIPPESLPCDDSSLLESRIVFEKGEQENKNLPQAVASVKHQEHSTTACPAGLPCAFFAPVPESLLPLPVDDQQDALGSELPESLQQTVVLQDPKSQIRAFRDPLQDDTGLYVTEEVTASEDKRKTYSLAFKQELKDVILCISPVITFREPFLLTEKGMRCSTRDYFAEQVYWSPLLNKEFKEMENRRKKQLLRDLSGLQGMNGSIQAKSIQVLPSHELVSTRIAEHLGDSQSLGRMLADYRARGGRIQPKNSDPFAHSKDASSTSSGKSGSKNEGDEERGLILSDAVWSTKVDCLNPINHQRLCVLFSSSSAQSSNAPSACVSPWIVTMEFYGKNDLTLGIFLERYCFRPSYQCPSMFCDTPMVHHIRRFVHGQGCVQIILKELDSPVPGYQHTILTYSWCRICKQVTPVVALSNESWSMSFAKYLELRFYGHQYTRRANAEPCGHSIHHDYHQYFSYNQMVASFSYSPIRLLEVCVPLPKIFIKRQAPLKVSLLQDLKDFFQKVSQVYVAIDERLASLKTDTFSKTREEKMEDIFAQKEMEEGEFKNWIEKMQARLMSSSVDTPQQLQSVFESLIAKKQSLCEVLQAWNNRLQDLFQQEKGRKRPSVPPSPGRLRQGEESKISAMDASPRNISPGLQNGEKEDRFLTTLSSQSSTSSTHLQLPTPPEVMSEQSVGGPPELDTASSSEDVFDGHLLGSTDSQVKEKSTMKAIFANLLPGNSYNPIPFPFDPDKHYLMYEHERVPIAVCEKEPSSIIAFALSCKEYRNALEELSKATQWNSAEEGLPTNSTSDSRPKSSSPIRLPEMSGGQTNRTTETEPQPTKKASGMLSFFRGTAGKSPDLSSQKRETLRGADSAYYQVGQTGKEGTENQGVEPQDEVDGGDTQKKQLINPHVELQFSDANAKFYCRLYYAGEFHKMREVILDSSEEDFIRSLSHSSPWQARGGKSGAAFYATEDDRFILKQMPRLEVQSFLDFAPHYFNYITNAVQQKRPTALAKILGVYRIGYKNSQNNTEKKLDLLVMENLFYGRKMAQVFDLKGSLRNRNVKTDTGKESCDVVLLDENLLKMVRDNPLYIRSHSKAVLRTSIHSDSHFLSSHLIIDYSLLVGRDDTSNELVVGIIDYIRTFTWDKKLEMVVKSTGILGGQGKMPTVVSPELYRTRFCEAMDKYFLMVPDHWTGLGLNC

Molecule	IC50
CN1CCOC(COc2nc(N3CCOCC3)nc3c2CCN3c2cccnc2)C1 (stereo not shown) [Compound 12, 4-methyl-2-((2-morpholino-7-(pyridin-3-yl)-6,7-dihydro-5H-pyrrolo[2,3-d]pyrimidin-4-yloxy)methyl)morpholine]	100 to 1000 nM
c1cncc(N2CCc3c(N4CCN5CCOCC5C4)nc(N4CCOCC4)nc32)c1 (stereo not shown) [Compound 79, 8-(2-morpholino-7-(pyridin-3-yl)-6,7-dihydro-5H-pyrrolo[2,3-d]pyrimidin-4-yl)octahydropyrazino[2,1-c][1,4]oxazine]	1000 to 10000 nM
c1ccc(N2CCc3c(-c4ccncc4)nc(N4CCOCC4)nc32)cc1 [Compound 92, 4-(7-phenyl-4-(pyridin-4-yl)-6,7-dihydro-5H-pyrrolo[2,3-d]pyrimidin-2-yl)morpholine]	10 to 100 nM
c1ccc(-c2cncc(N3CCc4c(Oc5cccnc5)nc(N5CCOCC5)nc43)c2)cc1 [Compound 67, 4-(7-(5-phenylpyridin-3-yl)-4-(pyridin-3-yloxy)-6,7-dihydro-5H-pyrrolo[2,3-d]pyrimidin-2-yl)morpholine]	10 to 100 nM
CC(C)(C)OC(=O)N1CCC(c2nc(N3CCOCC3)nc3c2CCN3c2ccccc2)CC1 [Compound 110, tert-butyl 4-(2-morpholino-7-phenyl-6,7-dihydro-5H-pyrrolo[2,3-d]pyrimidin-4-yl)piperidine-1-carboxylate]	10 to 100 nM
O=C(c1ccccc1)N1CCc2c(Oc3cccnc3)nc(N3CCOCC3)nc21 [Compound 72, (2-morpholino-4-(pyridin-3-yloxy)-6H-pyrrolo[2,3-d]pyrimidin-7(6H)-yl)(phenyl)methanone]	1000 to 10000 nM
N#Cc1ccc(N2CCc3c(OCc4cccnc4)nc(N4CCOCC4)nc32)cc1 [Compound 7, 4-(2-morpholino-4-(pyridin-3-ylmethoxy)-5H-pyrrolo[2,3-d]pyrimidin-7(6H)-yl)benzonitrile]	10 to 100 nM
c1ccc(N2CCc3c(COc4cccnc4)nc(N4CCOCC4)nc32)cc1 [Compound 59, 4-(7-phenyl-4-((pyridin-3-yloxy)methyl)-6,7-dihydro-6H-pyrrolo[2,3-d]pyrimidin-2-yl)morpholine]	100 to 1000 nM
CC(C)(C)OC(=O)N1CCC(COc2nc(N3CCOCC3)nc3c2CCN3c2cccnc2)C1 (stereo not shown) [Compound 33, tert-butyl 3-(((2-morpholino-7-(pyridin-3-yl)-6,7-dihydro-4H-pyrrolo[2,3-d]pyrimidin-4-yl)oxy)methyl)pyrrolidine-1-carboxylate]	100 to 1000 nM
c1ncc(N2CCc3c(OCC4CCOCC4)nc(N4CCOCC4)nc32)cn1 [Compound 9, 4-(7-(pyrimidin-5-yl)-4-((tetrahydro-2H-pyran-4-yl)methoxy)-6,7-dihydro-5H-pyrrolo[2,3-d]pyrimidin-2-yl)morpholine]	100 to 1000 nM
c1cc(-c2c[nH]c3c(OCc4cccnn4)nc(N4CCOCC4)nc23)cc(-n2cccn2)c1 [Compound 150, 4-(7-(3-(1H-pyrazol-1-yl)phenyl)-4-(pyridazin-3-ylmethoxy)-6H-pyrrolo[3,2-d]pyrimidin-2-yl)morpholine]	10 to 100 nM
c1ccc(N2CCc3c(C4CNC4)nc(N4CCOCC4)nc32)cc1 [Compound 115, 4-(4-(azetidin-3-yl)-7-phenyl-6,7-dihydro-5H-pyrrolo[2,3-d]pyrimidin-2-yl)morpholine]	100 to 1000 nM
CN1CCCC(COc2nc(N3CCOCC3)nc3c2CCN3c2ccccc2)C1 (stereo not shown) [Compound 28, 4-(4-((1-methylpiperidin-3-yl)methoxy)-7-phenyl-6,7-dihydro-5H-pyrrolo[2,3-d]pyrimidin-2-yl)morpholine.formate]	100 to 1000 nM
4-(6-methyl-7-(pyridin-4-yl)-4-(tetrahydrofuran-3-yl)-6,7-dihydro-5H-pyrrolo[2,3-d]pyrimidin-2-yl)morpholine [Compound 98]	10 to 100 nM
c1ccc(N2CCc3c(-c4cccnc4)nc(N4CCOCC4)nc32)cc1 [Compound 91, 4-(7-phenyl-4-(pyridin-3-yl)-6,7-dihydro-5H-pyrrolo[2,3-d]pyrimidin-2-yl)morpholine]	10 to 100 nM

same assay, conditions: values plotted in FIG. 7; read-out: PIKFYVE Biochemistry (IC50)

IC50	Molecule
> 10000 nM	O=c1ccn(Cc2nc(N3CCOCC3)cc(-n3nccc3-c3ccccc3)n2)cc1
